≈ marks a conversion by molar mass, not a printed value. Entries after “also recorded” stand apart in the source; their conditions may differ. Read-outs that look alike come from different tables or passages of the source.
How the values were obtained:
[1] = test system: human lymphoblasts; experiment: Lymphoblast DNA synthesis / viability (3H-thymidine incorporation); type: cell-based
Method: In FIGS. 11A through 11E, normal lymphoblasts stimulated with PHA are infected with HIV and at the same time are submitted to various concentrations from 0-10 mM 6-ABP. After the short exposure of 18 hours, both HIV and 6-ABP are removed, FIGS. 11A, 11C, 11E and the 6-ABP in the same concentrations is readded up to 4 days to cultures shown in FIGS. 11B and 11D. At 4 days, proliferation index measured by ^3 H-thymidine incorporation is determined in FIGS. 11A and 11B. […] In FIGS. 11C and […], the viral synthesis or inhibition is measured by p 24 assay.
The viability of lymphoblasts was measured by incubating the cells exposed to IL-2, HIV and to 6-ABP with H3-thymidine for 6 hours on the sixth day of culture and determining the amount of cpm incorporated per 100,000 cells placed in culture.
In order to ascertain that relatively short 18 hours exposure of human lymphoblasts selectively blocks HIV replication and has minimal effects on DNA synthesis of lymphoblasts, the proliferation, p24 and reverse transcriptase experiments were also performed, as shown in FIG. 11.
In panel A (top) DNA synthesis of lymphoblasts is assayed as a function of 6-ABP concentration. In panel A' (lower curve) the decay of HIV replication is simultaneously determined, and in A "panel" reverse transcriptase was assayed. All these are accepted assays for HIV replication.

[2] = test system: HIV in whole blood; experiment: HIV inhibition in whole blood of HIV infected patients; type: cell-based; conditions: FIG. 10 results repeated in whole blood
[3] = test system: Influenza virus; experiment: microbe, parasite or virus in culture; type: cell-based, Influenza virus (patient isolate)
[4] = type: in vivo
Method: This example illustrates the lack of toxicity after intraperitoneal administration of 6-ABP to mice.
Two toxicological tests administering 6-ABP to mice were performed under the following conditions.
One group of 5 mice received 6-ABP i.p. injection in amount of 1 g/kg.
Group of 50 white mice was injected daily with 250 mg/kg 6-ABP i.p. for 12 days.

[5] = test system: CMV; experiment: microbe, parasite or virus in culture; type: cell-based, human cytomegalovirus (patient isolate)
[6] = test system: AA-2 cells; experiment: AA-2 cell count and viability; type: cell-based; conditions: 3 mM
Method: The effects of 6-ABP treatment of AA-2 cells was directly analyzed by cell count and viability tests including cloning efficiency and trypan blue uptake. The AA2 cell culture having initial cell count per well 0.5×10^5 was submitted to treatment with 3 mM of 6-ABP and compared to untreated (Control) cell culture. The cells were counted 4 days after the treatment with 6-ABP.

[7] = test system: HIV in AA-2 cells; experiment: HIV replication in AA-2 cells (p 24 ELISA); type: cell-based; conditions: 3 mM
Method: The effects of 3 mM 6-ABP on HIV replication in AA-2 cells using the same experimental set-up as for FIG. 7 was followed by the conventional analysis of p 24 formation by automated ELISA tests. The results are shown in FIG. 8, where as in FIG. 7, the influence of varying HIV concentrations infecting HIV dilution, from 1:100 to 1:1600 or p 24 input, as shown in graph, was monitored.

[8] = Aqueous solubility and solution stability; type: physicochemical
[9] = Yakugaku Zasshi, cited from earlier work
[10] = test system: HIV-LTR; experiment: cells
Method: All chimeric CAT constructions were prepared in pCATB' containing the CAT structural gene without eukaryotic promoter sequence.
DNA transfection was performed with DEAE dextran. Briefly, U937 cells (5×10^6) were exposed for 60 min. at 37° C. to a mixture of DEAE Dextran (1.05 ug/ml) and DNA in STBS buffer (25 mM Tris HCl, having pH 7.5, 137 mM NaCl, 0.5 MgCl2, 0.7 mM CaCl2 and 5 mM KCl and 0.6 mM Na2 HPO4) in 15 ml snap cap 6×35 mm polyethylene dishes from Costar, Cambridge, Mass., at 5×10^6 cells per well. Routinely, transfection mixtures contained 1.0 ug of target supercoiled plasmid and 0.1 ug DNA to equalize nucleic acid concentration effects. Transfected cells were harvested 40 to 44 hr post transfection in CAT harvest buffer (40 mM Tris, having pH 7.4 150 mM NaCl, 1 mM EDTA) and stored at -20° C. until assayed.
Routine assay conditions employed 0.2 uCi of [^14 C]-chloramphenicol substrate and an incubation time of 60 min. For quantitative estimates of CAT activity and fold activation, the appropriate sections were cut from the thin-layer chromatography scintillation fluid added and the radioactivity was counted in a scintillation counter. Quantitative comparisons were made by measuring the amounts of chloramphenicol-acetate product with enzyme concentrations and time. pSV CAT was used as a positive control, and the parent (pCATB') was used as a negative control. […]

[11] = test system: HIV in AA-2 cells; experiment: HIV propagation in AA-2 cells (cytopathogenicity); type: cell-based; conditions: for inhibition at 3000 µM: varying HIV dilutions, read-out: HIV growth inhibition in AA-2 cells
Method: Whereas the activation of latent HIV by various DNAs and its prevention by 6-ABP were shown above, the following experiments examine the effects of 6-ABP on the direct propagation of highly virulent HIV strain obtained from NIH in Molt III cells, using cell supernatant as source of virus on AA-2 and MT2 cells in culture. More than 60 tests were performed varying virus titers, time of exposure, and exposure to 6-ABP.
The effect of 1 and 3 mM 6-ABP on the rate of HIV propagation is assayed by cytopathogenicity at a fixed HIV dilution 1:1600.
FIG. 7 illustrates the effect of 3 mM 6-ABP on HIV growth inhibition in AA-2 cells after 3 days and 6 days. The culture was exposed to 3 mM of the drug at varying HIV dilutions. 6-ABP concentration acting for 3 or 6 consecutive days on AA-2 cells is depicted as a function of virus concentration (given as HIV dilution on the abscissa).

[12] = test system: HSV-2 strain G; experiment: microbe, parasite or virus in culture; type: cell-based, Herpes simplex virus type 2
[13] = 1 mM 6-ABP, 24 hours before infection

Structure (SMILES): Nc1ccc2oc(=O)ccc2c1 [6-ABP, 6-amino-1,2-benzopyrone]
- viability of lymphoblasts ([1]; 4 consecutive days exposure): viability of lymphoblasts was not affected by the drug
- DNA synthesis of lymphoblasts ([1]; 18 hours exposure, FIG. 11A): does not influence genomic DNA synthesis; also recorded: did not effect the DNA synthesis; also recorded: cellular DNA synthesis virtually unaffected
- DNA synthesis of lymphoblasts ([1]; 4 days exposure, FIG. 11B): temporarily also inhibited; also recorded: inhibitory effect on lymphoblast DNA synthesis
- HIV inhibition in whole blood [2]: essentially reproduced in whole blood of HIV infected patients
- Virus Titer +6-ABP (Influenza) ([3]; 1 mM 6-ABP, 24 hours before infection, highest dilution that caused 50% hemagglutination): 1 × 10^4
- effect on Influenza virus growth ([3]; 6-ABP treatment): no effect
- inhibition at 1000 µM ([3]; unidentified influenza virus, read-out: % Inhibition (Influenza)): 0%
- behavior ([4]; 250 mg/kg i.p. daily, 12 days): quite normal
- toxic effects ([4]; 250 mg/kg i.p. daily, 12 days): no visible toxic effects
- weight gain ([4]; 250 mg/kg i.p. daily, 12 days): no disruption in their normal weight gain
- seizures and weakness in one mouse ([4]; 1 g/kg i.p., 4 hours after injection, recovered in 18 hours): seizures and hind leg weakness but then completely recovered in 18 hours
- toxic symptoms ([4]; 1 g/kg i.p., single, 24 hours observation): no toxic symptoms in 4 mice
- Virus Titer +6-ABP (CMV) [5, 13]: 1 × 10^3 TCID50
- effect on CMV growth ([5]; 6-ABP treatment): effectively inhibits CMV growth
- inhibition at 1000 µM ([5]; Human betaherpesvirus 5, 1 mM 6-ABP, 24 hours before infection): 90%
- cell proliferation ([6]; AA-2 cells): inhibitory effect on cell proliferation
- Viability test / cellular toxicity ([6]; AA-2 cells, cloning efficiency and trypan blue uptake): no evidence of toxic effects; also recorded: does not coincide with any detectable cellular toxicity
- Cell Count After 4 days ([6]; initial count per well 0.5 × 10^5, control 1.5 × 10^5): 0.7 × 10^5 (± 35%)
- HIV replication ([7]; beyond a virus dilution of 1:1400): profoundly inhibited HIV replication
- p 24 generation ([7]; day 4, 1:1400 virus dilution): completely suppressed p 24 generation
- solution stability ([8]; 10-12 mM solution, pH 7.2-7.9, room temperature, in the dark): stable for months at room temperature
- solubility ([8]; aqueous media, pH 7.2-7.9): 10 to 12 mM (≈ 1610 to 1930 µg/mL)
- degraded ([8]; aqueous solution, 10-12 mM solution, months at room temperature, in the dark, read-out: decomposition of solution): < 0.1%
- hypothermal effect ([9]; 78:491 (1958)): 6-amino group decreased the hypothermal effect
- antipyretic, hypnotic, hypotensive and adrenolytic action ([9]; 83:1124 (1963)): Some antipyretic, hypnotic, hypotensive and adrenolytic action
- fold induction at 5000 µM ([10]; Human immunodeficiency virus 1, U-937, read-out: Fold Activation, HSV-IE-110 + 6-ABP, 5 mM 6-ABP, HSV-IE-110): 20
- fold induction at 2000 µM ([10]; Human immunodeficiency virus 1, U-937, read-out: HIV-LTR-CAT activation by IE-110 after treatment, 2 mM 6-ABP, FIG. 5, 344-fold activation without drug): 0.4 to 0.9
- HIV propagation in AA-2 cells ([11]; 1 mM, HIV dilution 1:1600): able to suppress the HIV propagation only slightly
- HIV replication, AA-2 cells ([11]; 3 mM, Example 5): complete abrogation of HIV replication
- HIV propagation in AA-2 cells ([11]; 3 mM, day 6, HIV dilution 1:1600): completely eliminates HIV propagation
- inhibition at 3000 µM ([11]; Human immunodeficiency virus 1, 72 h, 3 mM, 3 days): 70 to 100%
- inhibition at 3000 µM ([11]; Human immunodeficiency virus 1, 144 h, 3 mM, 6 days): 25 to 100%
- Virus Titer +6-ABP (HSV-2) [12, 13]: 2 × 10^5 PFU per ml
- effect of time of drug addition, HSV-2 (G) ([12]; 1, 5 and 10 mM, zero time vs 4 hours after infection): essentially no differences found between the two modes of drug exposure
- inhibition of HSV-2 strain G growth ([12]; 1-10 mM, 24 hours pretreatment, HEp-2 cells): 90-97%
- inhibition at 1000 µM ([12]; Human alphaherpesvirus 2, 0 h, 1 mM at 0 hours (time of infection), read-out: inhibition of HSV-2 growth): 85%
- inhibition at 1000 µM ([12]; Human alphaherpesvirus 2, 1 mM 6-ABP, 24 hours before infection, read-out: % Inhibition (HSV-2), Table 1): 87.5%
- inhibition at 1000 µM ([12]; Human alphaherpesvirus 2, 1 mM, 24 hours pretreatment, read-out: inhibition of HSV-2 growth): 90%
- inhibition at 1000 µM ([12]; Human alphaherpesvirus 2, 4 h, 1 mM at 4 hours post infection, read-out: inhibition of HSV-2 growth): 72%
- inhibition at 200 µM ([12]; Human alphaherpesvirus 2, HEp-2, 0.2 mM, 24 hours pretreatment, HEp-2 cells, read-out: inhibition of HSV-2 strain G growth): ~45%

— patent publication US5583155A, “6-amino-1,2-benzopyrones useful for treatment of viral diseases” (Octamer, Inc., priority 1994, dated 1996)
